pIC50: −log10 of the molar value.
Key:
human recombinant HDAC1 = target: T1, human recombinant HDAC1 (Homo sapiens, UniProt Q13547); experiment: HDAC1 enzyme activity inhibition (HDAC1 Fluorimetric Drug Discovery Assay Kit, in vitro); type: biochemical; conditions: samples at 100, 1000 and 10000 nM
T1 construct: purchased Enzolifesciences BML-SE456
In short: (§1)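 Recombinant human HDAC1 or HDAC6 (0.3 μg) with Fluor de Lys-SIRT1 substrate at […], 60 min at 37 °C, then developer 30 min; fluorescence Ex 360/Em 460. Compounds at 100–10000 nM for HDAC1 and 0.1–1000 nM for HDAC6; IC50 calculated.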

human recombinant HDAC6 = target: T2, human recombinant HDAC6 (Homo sapiens, UniProt Q9UBN7); experiment: HDAC6 enzyme activity inhibition (fluorimetric, in vitro); type: biochemical; conditions: samples at 0.1, 1, 10, 100 and 1000 nM
T2 construct: purchased Calbiochem 382180
T2 sequence (Q9UBN7 1-1215): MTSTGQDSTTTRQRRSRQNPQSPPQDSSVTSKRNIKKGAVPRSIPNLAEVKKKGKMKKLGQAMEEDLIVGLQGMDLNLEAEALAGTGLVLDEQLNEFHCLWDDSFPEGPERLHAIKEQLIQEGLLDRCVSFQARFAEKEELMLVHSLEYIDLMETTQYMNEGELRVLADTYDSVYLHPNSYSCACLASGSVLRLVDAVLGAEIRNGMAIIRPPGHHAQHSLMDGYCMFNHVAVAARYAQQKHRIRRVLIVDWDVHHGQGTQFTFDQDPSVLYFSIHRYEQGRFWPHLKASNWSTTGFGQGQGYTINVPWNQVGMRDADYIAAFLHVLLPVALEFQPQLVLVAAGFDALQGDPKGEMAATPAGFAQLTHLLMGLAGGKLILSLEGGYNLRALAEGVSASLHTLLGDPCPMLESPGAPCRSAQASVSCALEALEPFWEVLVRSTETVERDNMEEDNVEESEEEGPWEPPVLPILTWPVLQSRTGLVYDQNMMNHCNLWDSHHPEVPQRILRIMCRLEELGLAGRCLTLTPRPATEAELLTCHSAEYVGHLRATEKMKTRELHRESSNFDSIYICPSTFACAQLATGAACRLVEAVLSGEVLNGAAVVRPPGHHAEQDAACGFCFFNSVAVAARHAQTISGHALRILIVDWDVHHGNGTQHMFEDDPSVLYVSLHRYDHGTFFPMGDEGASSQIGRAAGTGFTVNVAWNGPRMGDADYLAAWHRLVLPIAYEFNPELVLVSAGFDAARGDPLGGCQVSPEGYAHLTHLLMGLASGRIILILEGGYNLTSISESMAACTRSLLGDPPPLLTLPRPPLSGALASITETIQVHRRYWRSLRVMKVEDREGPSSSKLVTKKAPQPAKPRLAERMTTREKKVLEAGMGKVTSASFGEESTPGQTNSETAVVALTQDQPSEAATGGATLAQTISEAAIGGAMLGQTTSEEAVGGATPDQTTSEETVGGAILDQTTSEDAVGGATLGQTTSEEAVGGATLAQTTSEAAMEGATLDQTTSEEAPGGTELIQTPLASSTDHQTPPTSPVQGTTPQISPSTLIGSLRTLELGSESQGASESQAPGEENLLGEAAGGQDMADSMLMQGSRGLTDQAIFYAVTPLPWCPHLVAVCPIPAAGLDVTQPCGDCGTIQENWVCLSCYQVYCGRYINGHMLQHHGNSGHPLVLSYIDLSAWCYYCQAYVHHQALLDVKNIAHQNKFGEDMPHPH
In short: as §1

T1 sequence (Q13547 whole entry): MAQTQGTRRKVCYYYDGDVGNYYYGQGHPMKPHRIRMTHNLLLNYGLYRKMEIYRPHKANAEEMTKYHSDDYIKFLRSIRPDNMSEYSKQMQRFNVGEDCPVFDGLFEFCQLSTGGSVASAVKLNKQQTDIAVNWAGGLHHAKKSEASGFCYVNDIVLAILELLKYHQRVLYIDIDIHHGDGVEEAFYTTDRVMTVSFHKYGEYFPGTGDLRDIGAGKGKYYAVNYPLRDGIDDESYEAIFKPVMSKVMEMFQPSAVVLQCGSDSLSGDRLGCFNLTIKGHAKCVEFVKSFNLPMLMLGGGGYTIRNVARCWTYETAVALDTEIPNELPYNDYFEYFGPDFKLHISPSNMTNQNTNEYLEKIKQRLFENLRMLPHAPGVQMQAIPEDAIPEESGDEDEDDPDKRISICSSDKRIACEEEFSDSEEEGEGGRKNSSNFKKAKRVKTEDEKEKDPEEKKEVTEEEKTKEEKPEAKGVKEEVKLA

Row | SMILES | pIC50 (human recombinant HDAC1) | pIC50 (human recombinant HDAC6)
1 | CS(=N)(=O)c1ccc(N(Cc2ccc(-c3nnc(C(F)F)o3)cn2)C(=O)N2CCS(=N)(=O)CC2)cc1 (centres unmarked) [Compound 15, N-((5-(5-(difluoromethyl)-1,3,4-oxadiazol-2-yl)pyridin-2-yl)methyl)-1-imino-N-(4-(S-methylsulfonimidoyl)phenyl)thiomorpholin-4-carboxamide 1-oxide] | < 5.00 | 5.87
2 | N=S1(=O)CCN(C(=O)N(Cc2ccc(-c3nnc(C(F)F)o3)cc2F)c2ccc(Cl)c(Cl)c2)CC1 [Compound 42, N-(3,4-dichlorophenyl)-N-(4-(5-(difluoromethyl)-1,3,4-oxadiazol-2-yl)-2-fluorobenzyl)-1-iminothiomorpholin-4-carboxamide 1-oxide] | < 5.00 | 7.42
3 | CC1CN(C(=O)N(Cc2ccc(-c3nnc(C(F)F)o3)cn2)c2ccc(F)cc2)CC(C)S1(=N)=O (centres unmarked) [Compound 64, N-[[5-[5-(difluoromethyl)-1,3,4-oxadiazol-2-yl]-2-pyridyl]methyl]-N-(4-fluorophenyl)-1-imino-2,6-dimethyl-1-oxo-1,4-thiazinan-4-carboxamide] | < 5.00 | 6.91
4 | N=S1(=O)CCN(C(=O)N(Cc2ccc(-c3nnc(C(F)F)o3)cc2F)c2ccccc2)CC1 [Compound 1, N-(4-(5-(difluoromethyl)-1,3,4-oxadiazol-2-yl)-2-fluorobenzyl)-1-imino-N-phenylthiomorpholin-4-carboxamide 1-oxide] | < 5.00 | 7.31
5 | N=S1(=O)CCN(C(=O)N(Cc2ccc(-c3nnc(C(F)F)o3)cn2)c2ccccc2)CC1 [Compound 3, N-((5-(5-(difluoromethyl)-1,3,4-oxadiazol-2-yl)pyridin-2-yl)methyl)-1-imino-N-phenylthiomorpholin-4-carboxamide 1-oxide] | < 5.00 | 6.82
6 | N=S1(=O)CCN(S(=O)(=O)N(Cc2ccc(-c3nnc(C(F)F)o3)cn2)c2ccc(F)cc2)CC1 [Compound 76, N-[[5-[5-(difluoromethyl)-1,3,4-oxadiazol-2-yl]-2-pyridyl]methyl]-N-(4-fluorophenyl)-1-imino-1-oxo-1,4-thiazinan-4-sulfonamide] | < 5.00 | 7.40
7 | O=C(N=S1(=O)CCN(C(=O)N(Cc2ccc(-c3nnc(C(F)F)o3)cn2)c2ccccc2)CC1)OCc1ccccc1 [Compound 5, Benzyl (4-(((5-(5-(difluoromethyl)-1,3,4-oxadiazol-2-yl)pyridin-2-yl)methyl)(phenyl)carbamoyl)-1-oxidothiomorpholin-1-ylidene)carbamate] | < 5.00 | 7.04
8 | N=S1(=O)CCN(c2c(N(Cc3ccc(-c4nnc(C(F)F)o4)cc3F)c3ccccc3)c(=O)c2=O)CC1 [Compound 60, 3-((4-(5-(difluoromethyl)-1,3,4-oxadiazol-2-yl)-2-fluorobenzyl)(phenyl)amino)-4-(1-imino-1-oxidothiomorpholino)cyclobut-3-en-1,2-dione] | < 5.00 | 7.57
9 | CCOP(=O)(N=S1(=O)CCN(C(=O)N(Cc2ccc(-c3nnc(C(F)F)o3)cc2F)c2ccc(F)c(F)c2)CC1)OCC [Compound 29, Diethyl (4-((4-(5-(difluoromethyl)-1,3,4-oxadiazol-2-yl)-2-fluorobenzyl)(3,4-difluorophenyl)carbamoyl)-1-oxidothiomorpholin-1-ylidene)phosphoramidate] | < 5.00 | 7.10
10 | CC(=O)N=S1(=O)CCN(C(=O)N(Cc2ccc(-c3nnc(C(F)F)o3)cc2F)c2ccccc2)CC1 [Compound 40, 1-(acetylimino)-N-(4-(5-(difluoromethyl)-1,3,4-oxadiazol-2-yl)-2-fluorobenzyl)-N-phenylthiomorpholin-4-carboxamide 1-oxide] | < 5.00 | 7.07

Next, values leading:

Row | pIC50 (human recombinant HDAC1) | pIC50 (human recombinant HDAC6) | SMILES
11 | < 5.00 | 7.14 | COc1cccc(N(Cc2ccc(-c3nnc(C(F)F)o3)cc2F)S(=O)(=O)N2CCS(=N)(=O)CC2)c1 [Compound 73, N-[[4-[5-(difluoromethyl)-1,3,4-oxadiazol-2-yl]-2-fluoro-phenyl]methyl]-1-imino-N-(3-methoxyphenyl)-1-oxo-1,4-thiazinan-4-sulfonamide]
12 | < 5.00 | 7.13 | CC1CN(C(=O)N(Cc2ccc(-c3nnc(C(F)F)o3)cn2)c2ccccc2)CCS1(=N)=O (centres unmarked) [Compound 85, N-[[5-[5-(difluoromethyl)-1,3,4-oxadiazol-2-yl]-2-pyridyl]methyl]-1-imino-2-methyl-1-oxo-N-phenyl-1,4-thiazinan-4-carboxamide]
13 | < 5.00 | 7.12 | N=S1(=O)CCN(C(=O)N(Cc2ccc(-c3nnc(C(F)F)o3)cc2F)c2ccc(Br)cc2)CC1 [Compound 20, N-(4-bromophenyl)-N-(4-(5-(difluoromethyl)-1,3,4-oxadiazol-2-yl)-2-fluorobenzyl)-1-iminothiomorpholin-4-carboxamide 1-oxide]
14 | < 5.00 | 7.49 | N=S1(=O)CCN(S(=O)(=O)N(Cc2ccc(-c3nnc(C(F)F)o3)cc2F)c2ccccc2)CC1 [Compound 18, N-(4-(5-(difluoromethyl)-1,3,4-oxadiazol-2-yl)-2-fluorobenzyl)-1-imino-N-phenylthiomorpholin-4-sulfonamide 1-oxide]
15 | < 5.00 | 6.85 | N=S1(=O)CCN(C(=O)N(Cc2ncc(-c3nnc(C(F)F)o3)cc2F)c2ccccc2F)CC1 [Compound 55]
16 | < 5.00 | 7.34 | CS(=N)(=O)C1CN(C(=O)N(Cc2ccc(-c3nnc(C(F)F)o3)cc2F)c2cccc(F)c2)C1 (centres unmarked) [Compound 91, N-[[4-[5-(difluoromethyl)-1,3,4-oxadiazol-2-yl]-2-fluoro-phenyl]methyl]-N-(3-fluorophenyl)-3-(methylsulfonimidoyl)azetidin-1-carboxamide]
17 | < 5.00 | 7.33 | CC(=O)N=S1(=O)CCN(C(=O)N(Cc2ccc(-c3nnc(C(F)F)o3)cn2)c2ccccc2)CC1 [Compound 52, 1-(acetylimino)-N-((5-(5-(difluoromethyl)-1,3,4-oxadiazol-2-yl)pyridin-2-yl)methyl)-N-phenylthiomorpholin-4-carboxamide 1-oxide]
18 | < 5.00 | 6.96 | Cn1ccc2cc(N(Cc3ccc(-c4nnc(C(F)F)o4)cc3F)C(=O)N3CCS(=N)(=O)CC3)ccc21 [Compound 10, N-(4-(5-(difluoromethyl)-1,3,4-oxadiazol-2-yl)-2-fluorobenzyl)-1-imino-N-(1-methyl-1H-indol-5-yl)thiomorpholin-4-carboxamide 1-oxide]
19 | < 5.00 | 7.03 | Cn1ccc2cc(N(Cc3ccc(-c4nnc(C(F)F)o4)cn3)C(=O)N3CCS(=N)(=O)CC3)ccc21 [Compound 14, N-((5-(5-(difluoromethyl)-1,3,4-oxadiazol-2-yl)pyridin-2-yl)methyl)-1-imino-N-(1-methyl-1H-indol-5-yl)thiomorpholin-4-carboxamide 1-oxide]
20 | < 5.00 | 7.18 | N=S1(=O)CCN(C(=O)N(Cc2ncc(-c3nnc(C(F)F)o3)cc2F)c2ccc(Cl)cc2Cl)CC1 [Compound 50, N-(2,4-dichlorophenyl)-N-((5-(5-(difluoromethyl)-1,3,4-oxadiazol-2-y1)-3-fluoropyridin-2-yl)methyl)-1-iminothiomorpholin-4-carboxamide 1-oxide]
21 | < 5.00 | 7.28 | N=S1(=O)CCN(S(=O)(=O)N(Cc2ccc(-c3nnc(C(F)F)o3)cc2F)c2cccc(Cl)c2)CC1 [Compound 70, N-(3-chlorophenyl)-N-[[4-[5-(difluoromethyl)-1,3,4-oxadiazol-2-yl]-2-fluoro-phenyl]methyl]-1-imino-1-oxo-1,4-thiazinan-4-sulfonamide]
22 | < 5.00 | 7.04 | N=S1(=O)CCN(C(=O)N(Cc2ccc(-c3nnc(C(F)F)o3)cc2F)c2ccc3c(c2)CCC3)CC1 [Compound 28, N-(4-(5-(difluoromethyl)-1,3,4-oxadiazol-2-y1)-2-fluorobenzyl)-N-(2,3-dihydro-1H-inden-5-yl)-1-iminothiomorpholin-4-carboxamide 1-oxide]

Reference: patent publication US20260125370A1, “SULFOXIMINE COMPOUNDS AS HISTONE DEACETYLASE 6 INHIBITOR, AND PHARMACEUTICAL COMPOSITION COMPRISING THE SAME” (CHONG KUN DANG PHARMACEUTICAL CORP., priority 2022, published 2026)
